Here are results for four compounds from patent US20260248744A1, “USE OF NON-TOXIC POLYAMINE ANALOGUES AND/OR INHIBITORS OF POLYAMINE BIOSYNTHESIS TO RE-BALANCE NATURAL POLYAMINE LEVELS IN SNYDER-ROBINSON SYNDROME AND RELATED DISORDERS” (The Johns Hopkins University, priority 2022, published 2026).

Data set [1] concerns SRS cells. The data set is described as follows: Treatment of SRS cells with AdoDATO (polyamine levels). The data set is classed as cell-based. To be noted: SRS cells (FIG. 6).
In data set [2] the target is T1, spermidine synthase (SRM) (Homo sapiens, UniProt P19623).
T1 sequence (P19623 1-302): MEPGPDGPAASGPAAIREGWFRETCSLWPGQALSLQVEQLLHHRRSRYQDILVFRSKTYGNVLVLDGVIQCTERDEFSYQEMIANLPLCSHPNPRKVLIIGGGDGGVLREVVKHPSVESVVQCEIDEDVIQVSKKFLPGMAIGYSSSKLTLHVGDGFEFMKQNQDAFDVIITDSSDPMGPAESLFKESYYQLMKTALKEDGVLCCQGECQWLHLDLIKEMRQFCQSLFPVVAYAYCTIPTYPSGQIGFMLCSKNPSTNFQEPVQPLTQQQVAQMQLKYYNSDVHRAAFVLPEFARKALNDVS
The data set is described as follows: Inhibition of spermidine synthase.

Data set [3] deals with WT male C57Bl/6J mice. Kind of data set: Long-term in vivo exposure to low-dose (R,R)-1,12-Me2Spm in mice. To be noted: WT male C57Bl/6J mice (FIG. 2). The text has this:
Without wishing to be bound to any one particular theory, it is thought that inhibiting polyamine biosynthesis will enhance uptake of 1,12-Me2Spm and/or reduce the dose necessary for spermidine reduction.

The test system of data set [4] is SRS fibroblast lines. Kind of data set: Proliferation of SRS fibroblast lines cotreated with DFMO and Me2Spm. Format: cell-based. To be noted: cotreated with DFMO and Me2Spm for 96 h (FIG. 4C). The protocol: (FIG. 4B) DFMO cooperates with Me2Spm in improving SPD/SPM ratio, indicated by numbers above columns. […] In FIG. 4A and FIG. 4B, SRS patient-derived lymphoblastoid cells were pretreated with DFMO followed by 96-h cotreatment with DFMO and Me2Spm. SRS fibroblast lines in FIG. 4C were cotreated with DFMO and Me2Spm for 96 h;

The conditions of data set [5]: shown previously (Murray Stewart et al., 2020); cited from earlier work.
Data set [6] relates to SRS patient-derived lymphoblastoid cells. Kind of data set: Polyamine levels in SRS patient-derived lymphoblastoid cells treated with DFMO and Me2Spm. The data set is classed as cell-based. To be noted: DFMO pretreatment followed by 96-h cotreatment (FIG. 4A).
Data set [7] has as its system SRS patient-derived cell lines. The data set is described as follows: Response of SRS patient-derived cell lines to DFMO (conversion of SPD to SPM). Format: cell-based.
Data set [8] concerns SAMDC. Kind of data set: SAMDC activity in SRS cells treated with DFMO. Format: cell-based. To be noted: FIG. 5C. The text has this: (§1) FIG. 5A, FIG. 5B, FIG. 5C, FIG. 5D, and FIG. 5E show potential therapeutic targets and molecules in the response of SRS cells to DFMO.
Data set [9] has as its system SRS cells with a complete loss-of-function mutation in SMS. The data set is described as follows: Response to DFMO of SRS cells with complete loss-of-function mutation in SMS. The data set is classed as cell-based. To be noted: response to DFMO (FIG. 5E).
From the text: as §1

For data set [10], the system named is children. To be noted: Phase 2 preventative trials in pediatric neuroblastoma; ODC1/Bachmann-Bupp trials; cited from earlier work.

`NCCCCC[S+](CCN)CC1OC(n2cnc3c(N)ncnc32)C(O)C1O` (stereo not drawn) [AdoDATO, S-adenosyl-1,8-diamino-3-thio-octane]: in data set [1], the SPD/SPM ratio result is on record as “improves the SPD/SPM ratio” and the levels of putrescine result is “maintaining levels of putrescine”. The “inhibition of spermidine synthase (SRM)” value in data set [2] is “inhibits spermidine synthase (SRM)”.
`C[C@@H](N)CCNCCCCNCC[C@@H](C)N` [(R,R)-1,12-dimethylspermine]: in [3], the SPD/SPM ratio result was “improves the SPD/SPM ratio” and the “toxicity of long-term in vivo exposure” value is “nontoxic”. Moreover, the “rescue of DFMO-mediated growth inhibition” value in data set [4] is given as “rescues DFMO-mediated growth inhibition”. Besides, in [5], the metabolic stability result is “metabolically stable”.
In the case of difluoromethylornithine [DFMO], the “uptake of Me2Spm” value in [6] is recorded as “increases uptake of Me2Spm”. Further, the SPD/SPM ratio result in data set [7] (SRS patient-derived cell lines (FIG. 5B)) is “correction of the SPD/SPM ratio”. The figures for the “conversion of SPD to SPM” value in data set [7] (hypomorphic SRS cells (FIG. 5A)) and in data set [9] were “enhances conversion of SPD to SPM” and “do not convert SPD to SPM”, respectively. Also, in data set [8], the SAMDC activity entry is listed as “induces SAMDC activity”. Also, the levels of putrescine result in data set [1] is listed as “depletes”. In data set [10], the safety in children result is listed as “safe in children”.
Turning to `N=C(N)c1cccc2c1CC/C2=N\N=C(N)N` [CGP48664], the “conversion to SPM on cotreatment with DFMO” value in data set [7] (cotreatment of DFMO with SAMDC inhibitor (FIG. 5D)) is “prevents the conversion to SPM”.
